In ChEMBL document CHEMBL1629617, “IncA/C plasmid-mediated florfenicol resistance in the catfish pathogen Edwardsiella ictaluri” (2009):
Converted amounts (≈) assume the structure as drawn.

Experiments:
Type in all cases: functional
[1] = tested on: Escherichia coli; assay: Antimicrobial activity against Escherichia coli ATCC […] by microdilution assay
[2] = tested on: Edwardsiella ictaluri; assay: Antimicrobial activity against florfenicol-resistant Edwardsiella ictaluri M07-1 by microdilution assay
[3] = tested on: Escherichia coli; assay: Antimicrobial activity against Escherichia coli ATCC […] carrying Edwardsiella ictaluri pM07-1 by microdilution assay
[4] = tested on: Edwardsiella ictaluri; assay: Fold resistance, ratio of MIC for florfenicol-resistance Edwardsiella ictaluri M07-1 to MIC for florfenicol-susceptible Edwardsiella ictaluri

Q: For `COc1cc(Cc2cnc(N)nc2N)cc(OC)c1OC` [TRIMETHOPRIM], which MIC [1] is on record?
A: 0.1 µg/mL (≈ 0.344 µM)

Q: And the MIC [2]?
A: 1 µg/mL (≈ 3.44 µM)

Q: And the MIC [3]?
A: 1 µg/mL (≈ 3.44 µM)

Q: `CN(C)[C@@H]1C(O)=C(C(N)=O)C(=O)[C@@]2(O)C(O)=C3C(=O)c4c(O)cccc4[C@@](C)(O)[C@H]3C[C@@H]12` [TETRACYCLINE] was tested. Which MIC [1] did it give?
A: 4 µg/mL (≈ 9 µM)

Q: What about the MIC [2] of the same compound?
A: 32 µg/mL (≈ 72 µM)

Q: What about the MIC [3] of the same compound?
A: 32 µg/mL (≈ 72 µM)

Q: Which MIC [1] does the source give for `O=C(N[C@H](CO)[C@H](O)c1ccc([N+](=O)[O-])cc1)C(Cl)Cl` [CHLORAMPHENICOL] here?
A: 4 µg/mL (≈ 12.4 µM)

Q: What about the MIC [2] of the same compound?
A: > 32 µg/mL

Q: What about the MIC [3] of the same compound?
A: > 32 µg/mL

Q: How did the MIC [1] turn out when `CC1(C)S[C@@H]2[C@H](NC(=O)[C@H](N)c3ccc(O)cc3)C(=O)N2[C@H]1C(=O)O` [AMOXICILLIN] was run?
A: 4 µg/mL (≈ 10.9 µM)

Q: What about the MIC [2] of the same compound?
A: > 32 µg/mL

Q: And the MIC [3]?
A: > 32 µg/mL

Q: Which MIC [1] does the source give for `CO[C@@]1(NC(=O)Cc2cccs2)C(=O)N2C(C(=O)O)=C(COC(N)=O)CS[C@@H]21` [CEFOXITIN] here?
A: 4 µg/mL (≈ 9.36 µM)

Q: What about the MIC [2] of the same compound?
A: > 32 µg/mL

Q: What about the MIC [3] of the same compound?
A: > 32 µg/mL

Q: With `Cc1cc(NS(=O)(=O)c2ccc(N)cc2)no1` [SULFAMETHOXAZOLE] as the compound, how does the MIC [1] read?
A: 2.4 µg/mL (≈ 9.48 µM)

Q: What about the MIC [2] of the same compound?
A: 19 µg/mL (≈ 75 µM)

Q: And the MIC [3]?
A: 19 µg/mL (≈ 75 µM)

Q: For `CC1(C)S[C@@H]2[C@H](NC(=O)[C@H](N)c3ccccc3)C(=O)N2[C@H]1C(=O)O` [AMPICILLIN], which MIC [1] is on record?
A: 4 µg/mL (≈ 11.4 µM)

Q: And the MIC [2]?
A: > 32 µg/mL

Q: And the MIC [3]?
A: > 32 µg/mL

Q: With `CN[C@@H]1[C@H](O[C@H]2[C@H](O[C@H]3[C@H](O)[C@@H](O)[C@H](N=C(N)N)[C@@H](O)[C@@H]3N=C(N)N)O[C@@H](C)[C@]2(O)C=O)O[C@@H](CO)[C@H](O)[C@H]1O` [STREPTOMYCIN] as the compound, how does the MIC [1] read?
A: < 32 µg/mL

Q: What about the MIC [2] of the same compound?
A: > 64 µg/mL

Q: What about the MIC [3] of the same compound?
A: > 64 µg/mL

Q: Which MIC [1] does the source give for `O=C(O)[C@H]1/C(=C/CO)O[C@@H]2CC(=O)N21` [CLAVULANIC ACID] here?
A: 2 µg/mL (≈ 10 µM)

Q: What about the MIC [2] of the same compound?
A: 16 µg/mL (≈ 80.3 µM)

Q: What about the MIC [3] of the same compound?
A: 16 µg/mL (≈ 80.3 µM)

Q: Which results are given for `CS(=O)(=O)c1ccc([C@@H](O)[C@@H](CF)NC(=O)C(Cl)Cl)cc1` [FLORFENICOL]?
A: MIC [1]: 4 µg/mL (≈ 11.2 µM); MIC [2]: 128 µg/mL (≈ 357 µM); Ratio [4]: 500; MIC [3]: 256 µg/mL (≈ 715 µM)

Q: What does the source list for `CO/N=C(\C(=O)N[C@@H]1C(=O)N2C(C(=O)O)=C(CSC(=O)c3ccco3)CS[C@H]12)c1csc(N)n1` [CEFTIOFUR]?
A: MIC [1]: 0.5 µg/mL (≈ 0.955 µM); MIC [2]: 8 µg/mL (≈ 15.3 µM); MIC [3]: > 8 µg/mL

Q: With `CO/N=C(\C(=O)N[C@@H]1C(=O)N2C(C(=O)O)=C(CSc3nc(=O)c(O)nn3C)CS[C@H]12)c1csc(N)n1` [CEFTRIAXONE] as the compound, how does the MIC [1] read?
A: < 0.25 µg/mL

Q: And the MIC [2]?
A: 32 µg/mL (≈ 57.7 µM)

Q: What about the MIC [3] of the same compound?
A: 32 µg/mL (≈ 57.7 µM)
